± gives the expanded uncertainty stated by the source.
Assay: xn = mol fraction of the nth substance listed
Settings: 101 kPa, Liquid; for viscosity: Capillary tube (Ostwald / Ubbelohde) method; for mass density: Vibrating tube method

Work on `ClC(Cl)Cl` [trichloromethane] + CC(=O)CC(C)C yielded a viscosity (283.15 K, x1 = 0.0847) of 0.685 ± 0.006 mPa·s, a viscosity (283.15 K, x1 = 0.1841) of 0.719 ± 0.006 mPa·s and a viscosity (283.15 K, x1 = 0.276) of 0.755 ± 0.006 mPa·s. For the same molecule, the viscosity (283.15 K, x1 = 0.3529) was 0.78 ± 0.006 mPa·s, the viscosity (283.15 K, x1 = 0.4467) was 0.808 ± 0.007 mPa·s and the viscosity (283.15 K, x1 = 0.506) was 0.812 ± 0.007 mPa·s. It also gave a viscosity (283.15 K, x1 = 0.6079) of 0.814 ± 0.007 mPa·s, a viscosity (283.15 K, x1 = 0.6959) of 0.798 ± 0.007 mPa·s and a viscosity (283.15 K, x1 = 0.8213) of 0.746 ± 0.006 mPa·s. The viscosity (283.15 K, x1 = 0.9067) was 0.689 ± 0.006 mPa·s, the viscosity (283.15 K, x1 = 1) was 0.629 ± 0.005 mPa·s and the mass density (283.15 K, x1 = 0.0847) was 849 ± 1 kg/m3. It also gave a mass density (283.15 K, x1 = 0.1841) of 898.2 ± 1.1 kg/m3, a mass density (283.15 K, x1 = 0.276) of 947.2 ± 1.1 kg/m3 and a mass density (283.15 K, x1 = 0.3529) of 991.1 ± 1.2 kg/m3. For the same molecule, the mass density (283.15 K, x1 = 0.4467) was 1048.8 ± 1.3 kg/m3, the mass density (283.15 K, x1 = 0.506) was 1087.7 ± 1.4 kg/m3 and the mass density (283.15 K, x1 = 0.6079) was 1159.3 ± 1.5 kg/m3. The mass density (283.15 K, x1 = 0.6959) was 1226.7 ± 1.7 kg/m3, the mass density (283.15 K, x1 = 0.8213) was 1332.6 ± 1.8 kg/m3 and the mass density (283.15 K, x1 = 0.9067) was 1412.3 ± 2 kg/m3. For the same molecule, the mass density (283.15 K, x1 = 1) was 1507.3 ± 0.7 kg/m3, the viscosity (293.15 K, x1 = 0.0847) was 0.598 ± 0.005 mPa·s and the viscosity (293.15 K, x1 = 0.1841) was 0.63 ± 0.005 mPa·s. The viscosity (293.15 K, x1 = 0.276) was 0.659 ± 0.006 mPa·s, the viscosity (293.15 K, x1 = 0.3529) was 0.678 ± 0.006 mPa·s and the viscosity (293.15 K, x1 = 0.4467) was 0.696 ± 0.006 mPa·s. For the same molecule, the viscosity (293.15 K, x1 = 0.506) was 0.703 ± 0.006 mPa·s, the viscosity (293.15 K, x1 = 0.6079) was 0.704 ± 0.006 mPa·s and the viscosity (293.15 K, x1 = 0.6959) was 0.696 ± 0.006 mPa·s. The viscosity (293.15 K, x1 = 0.8213) was 0.664 ± 0.006 mPa·s, the viscosity (293.15 K, x1 = 0.9067) was 0.629 ± 0.005 mPa·s and the viscosity (293.15 K, x1 = 1) was 0.573 ± 0.005 mPa·s. For the same molecule, the mass density (293.15 K, x1 = 0.0847) was 839.4 ± 1 kg/m3, the mass density (293.15 K, x1 = 0.1841) was 888.1 ± 1.1 kg/m3 and the mass density (293.15 K, x1 = 0.276) was 936.6 ± 1.1 kg/m3. It also gave a mass density (293.15 K, x1 = 0.3529) of 980.1 ± 1.2 kg/m3, a mass density (293.15 K, x1 = 0.4467) of 1037 ± 1.3 kg/m3 and a mass density (293.15 K, x1 = 0.506) of 1075.3 ± 1.4 kg/m3. The mass density (293.15 K, x1 = 0.6079) was 1146 ± 1.5 kg/m3, the mass density (293.15 K, x1 = 0.6959) was 1212.4 ± 1.7 kg/m3 and the mass density (293.15 K, x1 = 0.8213) was 1316.7 ± 1.8 kg/m3. For the same molecule, the mass density (293.15 K, x1 = 0.9067) was 1395 ± 2 kg/m3, the mass density (293.15 K, x1 = 1) was 1488.4 ± 0.7 kg/m3 and the viscosity (303.15 K, x1 = 0.0847) was 0.531 ± 0.005 mPa·s. For the same molecule, the viscosity (303.15 K, x1 = 0.1841) was 0.558 ± 0.005 mPa·s, the viscosity (303.15 K, x1 = 0.276) was 0.577 ± 0.005 mPa·s and the viscosity (303.15 K, x1 = 0.3529) was 0.596 ± 0.005 mPa·s. For the same molecule, the viscosity (303.15 K, x1 = 0.4467) was 0.616 ± 0.005 mPa·s, the viscosity (303.15 K, x1 = 0.506) was 0.62 ± 0.005 mPa·s and the viscosity (303.15 K, x1 = 0.6079) was 0.623 ± 0.005 mPa·s. For the same molecule, the viscosity (303.15 K, x1 = 0.6959) was 0.619 ± 0.005 mPa·s, the viscosity (303.15 K, x1 = 0.8213) was 0.592 ± 0.005 mPa·s and the viscosity (303.15 K, x1 = 0.9067) was 0.56 ± 0.005 mPa·s. It also gave a viscosity (303.15 K, x1 = 1) of 0.516 ± 0.005 mPa·s, a mass density (303.15 K, x1 = 0.0847) of 829.9 ± 1 kg/m3 and a mass density (303.15 K, x1 = 0.1841) of 878 ± 1 kg/m3. The mass density (303.15 K, x1 = 0.276) was 925.8 ± 1.1 kg/m3, the mass density (303.15 K, x1 = 0.3529) was 968.7 ± 1.2 kg/m3 and the mass density (303.15 K, x1 = 0.4467) was 1025 ± 1.3 kg/m3. The mass density (303.15 K, x1 = 0.506) was 1062.8 ± 1.4 kg/m3, the mass density (303.15 K, x1 = 0.6079) was 1132.5 ± 1.5 kg/m3 and the mass density (303.15 K, x1 = 0.6959) was 1197.9 ± 1.6 kg/m3. For the same molecule, the mass density (303.15 K, x1 = 0.8213) was 1300.6 ± 1.8 kg/m3, the mass density (303.15 K, x1 = 0.9067) was 1377.7 ± 2 kg/m3 and the mass density (303.15 K, x1 = 1) was 1469.4 ± 0.6 kg/m3. The viscosity (313.15 K, x1 = 0.0847) was 0.472 ± 0.004 mPa·s, the viscosity (313.15 K, x1 = 0.1841) was 0.493 ± 0.005 mPa·s and the viscosity (313.15 K, x1 = 0.276) was 0.513 ± 0.005 mPa·s. The viscosity (313.15 K, x1 = 0.3529) was 0.526 ± 0.005 mPa·s, the viscosity (313.15 K, x1 = 0.4467) was 0.542 ± 0.005 mPa·s and the viscosity (313.15 K, x1 = 0.506) was 0.551 ± 0.005 mPa·s. It also gave a viscosity (313.15 K, x1 = 0.6079) of 0.557 ± 0.005 mPa·s, a viscosity (313.15 K, x1 = 0.6959) of 0.554 ± 0.005 mPa·s and a viscosity (313.15 K, x1 = 0.8213) of 0.533 ± 0.005 mPa·s. The viscosity (313.15 K, x1 = 0.9067) was 0.503 ± 0.005 mPa·s, the viscosity (313.15 K, x1 = 1) was 0.468 ± 0.004 mPa·s and the mass density (313.15 K, x1 = 0.0847) was 820 ± 1 kg/m3. It also gave a mass density (313.15 K, x1 = 0.1841) of 867.5 ± 1 kg/m3, a mass density (313.15 K, x1 = 0.276) of 914.9 ± 1.1 kg/m3 and a mass density (313.15 K, x1 = 0.3529) of 957.1 ± 1.2 kg/m3. It also gave a mass density (313.15 K, x1 = 0.4467) of 1012.6 ± 1.2 kg/m3, a mass density (313.15 K, x1 = 0.506) of 1050 ± 1.4 kg/m3 and a mass density (313.15 K, x1 = 0.6079) of 1118.7 ± 1.4 kg/m3. The mass density (313.15 K, x1 = 0.6959) was 1183.2 ± 1.6 kg/m3, the mass density (313.15 K, x1 = 0.8213) was 1284.1 ± 1.7 kg/m3 and the mass density (313.15 K, x1 = 0.9067) was 1359.8 ± 1.9 kg/m3. It also gave a mass density (313.15 K, x1 = 1) of 1450 ± 0.6 kg/m3.
